The source of these data is patent publication US8932597B2 (priority 2008, dated 2015).

The assay relates to anti-M2 human monoclonal antibody Z3G1. The class given is binding.
With “1384 (CLLCEVETPIRNEWG; epitope peptide) [compound 1384]”, the “Signal (peptides that bind to Z3G1)” value amounted to 2388.

On to “1326 (MSLLCEVETPIRCE; epitope peptide) [compound 1326]”, for which the “Signal (peptides that bind to Z3G1)” value is 2772.

With “1255 (MHLLTEVETPIRNEWGCRCN; epitope peptide) [compound 1255]”, the “Signal (peptides that bind to Z3G1)” value turned out to be 2449.

As for “1281 (MSLLEEVETPIRNEWGCRCN; epitope peptide) [compound 1281]”, the “Signal (peptides that bind to Z3G1)” value is 2805.

Take “1392 (SLLCEVETPCRNEWG; epitope peptide) [compound 1392]”: the “Signal (peptides that bind to Z3G1)” value is given as 2465.

With “1494 (CLTEVETPIRLLTEVETPICVETPIRNEW; epitope peptide; MISC_FEATURE (1)..(1): C is an attachment site for a CLIP; MISC_FEATURE (10)..(10): R is an attachment site for a CLIP; MISC_FEATURE (11)..(11): L is an attachment site for a CLIP; MISC_FEATURE (29)..(29): W is an attachment site for a CLIP) [compound 1494]”, the “Signal (peptides that bind to Z3G1)” value is on record as 2443.

As for “1347 (MSLLCEVGMSLLTCV; epitope peptide) [compound 1347]”, the “Signal (peptides that bind to Z3G1)” value was found to be 2784.

For “1394 (SLLCEVECPIRNEWG; epitope peptide) [compound 1394]”, the “Signal (peptides that bind to Z3G1)” value is 2529.

Regarding “1440 (CTEVETPIRNSLLTEVETPCLTEVETPIR; epitope peptide; MISC_FEATURE (1)..(1): C is an attachment site for a CLIP; MISC_FEATURE (10)..(10): N is an attachment site for a CLIP; MISC_FEATURE (11)..(11): S is an attachment site for a CLIP; MISC_FEATURE (29)..(29): R is an attachment site for a CLIP) [compound 1440]”, the “Signal (peptides that bind to Z3G1)” value is on record as 2705.

Regarding “1308 (MSLLTEVPTPIRNEWGCRCN; epitope peptide) [compound 1308]”, the “Signal (peptides that bind to Z3G1)” value stood at 2380.

“1576 (YLLTEVETPIRNEWGCRCNDSSD; epitope peptide) [compound 1576]”: the “Signal (peptides that show specific binding to Z3G1)” value stood at 1882.

With “1361 (SLLCEVETPIRNC; epitope peptide) [compound 1361]”, the “Signal (peptides that bind to Z3G1)” value is recorded as 2460.

“1396 (SLLCEVETPIRNEWG; epitope peptide) [compound 1396]”: the “Signal (peptides that bind to Z3G1)” value was found to be 2384.

Consider “1322 (MCLLTEVECPIRNE; epitope peptide) [compound 1322]”, for which the “Signal (peptides that bind to Z3G1)” value came to 2421.

Regarding “1348 (MSLCTEVGCSCLCEV; epitope peptide) [compound 1348]”, the “Signal (peptides that bind to Z3G1)” value was found to be 2001.

Take “1329 (MSLLCEVETCIRNE; epitope peptide) [compound 1329]”: the “Signal (peptides that bind to Z3G1)” value worked out at 2589.

Regarding “1479 (CTEVETPIRNLLTEVETPICEVETPIRNE; epitope peptide; MISC_FEATURE (1)..(1): C is an attachment site for a CLIP; MISC_FEATURE (10)..(10): N is an attachment site for a CLIP; MISC_FEATURE (11)..(11): L is an attachment site for a CLIP; MISC_FEATURE (29)..(29): E is an attachment site for a CLIP) [compound 1479]”, the “Signal (peptides that bind to Z3G1)” value was found to be 1627.

For “1300 (MSLLTEVDTPIRNEWGCRCN; epitope peptide) [compound 1300]”, the “Signal (peptides that bind to Z3G1)” value is reported as 2856.

For the substance “1304 (MSLLTEVITPIRNEWGCRCN; epitope peptide) [compound 1304]”, the “Signal (peptides that bind to Z3G1)” value came out at 2668.

Consider “1577 (SLDTEVETPIRNEWGCRCNDSSD; epitope peptide) [compound 1577]”, for which the “Signal (peptides that show specific binding to Z3G1)” value is recorded as 1505.

For the substance “1446 (CETPIRNEWGLLTEVETPICLTEVETPIR; epitope peptide; MISC_FEATURE (1)..(1): C is an attachment site for a CLIP; MISC_FEATURE (10)..(10): G is an attachment site for a CLIP; MISC_FEATURE (11)..(11): L is an attachment site for a CLIP; MISC_FEATURE (29)..(29): R is an attachment site for a CLIP) [compound 1446]”, the “Signal (peptides that bind to Z3G1)” value turned out to be 2367.

For the substance “1515 (CETPIRNEWGLLTEVETPICETPIRNEWG; epitope peptide; MISC_FEATURE (1)..(1): C is an attachment site for a CLIP; MISC_FEATURE (10)..(10): G is an attachment site for a CLIP; MISC_FEATURE (11)..(11): L is an attachment site for a CLIP; MISC_FEATURE (29)..(29): G is an attachment site for a CLIP) [compound 1515]”, the “Signal (peptides that show specific binding to Z3G1)” value is listed as 2427.

“1256 (MILLTEVETPIRNEWGCRCN; epitope peptide) [compound 1256]”: the “Signal (peptides that bind to Z3G1)” value was 1634.

As to “1586 (SLLLEVETPIRNEWGCRCNDSSD; epitope peptide) [compound 1586]”, the “Signal (peptides that show specific binding to Z3G1)” value was 2344.

As to “1279 (MSLLAEVETPIRNEWGCRCN; epitope peptide) [compound 1279]”, the “Signal (peptides that bind to Z3G1)” value is given as 2807.

Turning to “1270 (MSLDTEVETPIRNEWGCRCN; epitope peptide) [compound 1270]”, the “Signal (peptides that bind to Z3G1)” value worked out at 2594.

“1263 (MRLLTEVETPIRNEWGCRCN; epitope peptide) [compound 1263]”: the “Signal (peptides that bind to Z3G1)” value came to 2519.

As for “1481 (CVETPIRNEWLLTEVETPICEVETPIRNE; epitope peptide; MISC_FEATURE (1)..(1): C is an attachment site for a CLIP; MISC_FEATURE (10)..(10): W is an attachment site for a CLIP; MISC_FEATURE (11)..(11): L is an attachment site for a CLIP; MISC_FEATURE (29)..(29): E is an attachment site for a CLIP) [compound 1481]”, the “Signal (peptides that bind to Z3G1)” value is listed as 1592.

“1321 (MCLLTEVETCIRNE; epitope peptide) [compound 1321]”: the “Signal (peptides that bind to Z3G1)” value came out at 1948.

As for “1382 (CLLTEVETCIRNEWG; epitope peptide) [compound 1382]”, the “Signal (peptides that bind to Z3G1)” value amounted to 2296.

As for “1334 (MSLLCEVGMCLLTEV; epitope peptide) [compound 1334]”, the “Signal (peptides that bind to Z3G1)” value stood at 2676.

Take “1285 (MSLLIEVETPIRNEWGCRCN; epitope peptide) [compound 1285]”: the “Signal (peptides that bind to Z3G1)” value is listed as 2371.

In the case of “1559 (SLLCEVGSLLTCV; epitope peptide) [compound 1559]”, the “Signal (peptides that show specific binding to Z3G1)” value was determined as 1972.

As to “1365 (SLLCEVETCIRNE; epitope peptide) [compound 1365]”, the “Signal (peptides that bind to Z3G1)” value came out at 2305.

Regarding “1582 (SLLGEVETPIRNEWGCRCNDSSD; epitope peptide) [compound 1582]”, the “Signal (peptides that show specific binding to Z3G1)” value came out at 2301.

With “1496 (CEVETPIRNELLTEVETPICVETPIRNEW; epitope peptide; MISC_FEATURE (1)..(1): C is an attachment site for a CLIP; MISC_FEATURE (10)..(10): E is an attachment site for a CLIP; MISC_FEATURE (11)..(11): L is an attachment site for a CLIP; MISC_FEATURE (29)..(29): W is an attachment site for a CLIP) [compound 1496]”, the “Signal (peptides that bind to Z3G1)” value is on record as 1625.

As to “1478 (CLTEVETPIRLLTEVETPICEVETPIRNE; epitope peptide; MISC_FEATURE (1)..(1): C is an attachment site for a CLIP; MISC_FEATURE (10)..(10): R is an attachment site for a CLIP; MISC_FEATURE (11)..(11): L is an attachment site for a CLIP; MISC_FEATURE (29)..(29): E is an attachment site for a CLIP) [compound 1478]”, the “Signal (peptides that bind to Z3G1)” value was 1681.

Consider “1250 (MALLTEVETPIRNEWGCRCN; epitope peptide) [compound 1250]”, for which the “Signal (peptides that bind to Z3G1)” value stood at 2604.

With “1294 (MSLLVEVETPIRNEWGCRCN; epitope peptide) [compound 1294]”, the “Signal (peptides that bind to Z3G1)” value worked out at 2732.

“1561 (SLLCEVGCLCTCV; epitope peptide) [compound 1561]”: the “Signal (peptides that show specific binding to Z3G1)” value stood at 2331.

For “1296 (MSLLYEVETPIRNEWGCRCN; epitope peptide) [compound 1296]”, the “Signal (peptides that bind to Z3G1)” value worked out at 2464.

Turning to “1277 (MSLRTEVETPIRNEWGCRCN; epitope peptide) [compound 1277]”, the “Signal (peptides that bind to Z3G1)” value came to 2554.

“1299 (MSLLTEVATPIRNEWGCRCN; epitope peptide) [compound 1299]”: the “Signal (peptides that bind to Z3G1)” value was found to be 2633.

Consider “1341 (MSLLCEVGMSLLCEV; epitope peptide) [compound 1341]”, for which the “Signal (peptides that bind to Z3G1)” value stood at 2851.

As to “1443 (CTEVETPIRNLLTEVETPICLTEVETPIR; epitope peptide; MISC_FEATURE (1)..(1): C is an attachment site for a CLIP; MISC_FEATURE (10)..(10): N is an attachment site for a CLIP; MISC_FEATURE (11)..(11): L is an attachment site for a CLIP; MISC_FEATURE (29)..(29): R is an attachment site for a CLIP) [compound 1443]”, the “Signal (peptides that bind to Z3G1)” value is recorded as 2213.

Turning to “1585 (SLLKEVETPIRNEWGCRCNDSSD; epitope peptide) [compound 1585]”, the “Signal (peptides that show specific binding to Z3G1)” value is reported as 2611.

Regarding “1338 (MSLLCEVGMSLCTEV; epitope peptide) [compound 1338]”, the “Signal (peptides that bind to Z3G1)” value is 2595.

As to “1328 (MSLLCEVETPCRNE; epitope peptide) [compound 1328]”, the “Signal (peptides that bind to Z3G1)” value came to 2652.
